Results as given in patent publication US20220143143A1, “USE OF ACTIVATORS OF THE ARYL HYDROCARBON RECEPTOR FOR TREATING GLUTEN-INDUCED GASTROINTESTINAL DISEASES” (McMaster University, priority 2019, published 2022).

Columns and labels:
Assay type in all cases: in vivo
AhR pathway genes = test: qPCR expression of AhR pathway and inflammation genes in duodenum; conditions: gluten treated NOD/DQ8 mice; 1 μg/mouse i.p. at day 1, 10, 20 and 30; vs vehicle (DMSO)
Method: AhR activation in duodenal biopsies was measured through qPCR to assess the expression of AhR pathway genes: AhR, CYP1A1, IL-22 and IL-17. IL-15 gene expression was also measured by qPCR as an inflammation marker. Total RNA was isolated from mouse duodenum samples using RNeasy Mini Kit (Qiagen, Hilden, Germany) with the DNase treatment, according to the manufacturer's instructions. RNA concentration was determined using a NanoDrop spectrophotometer […]. Quantitative RT-PCR was performed using iScript Reverse Transcriptase (Bio-Rad) and then a SsoFast EvaGreen Supermix (Bio-Rad) in a Mastercycler ep realplex apparatus (Eppendorf) with specific mouse oligonucleotides. Additional information on the primers used is available in Table 2. qPCR data were analyzed using the 2-ΔΔCt quantification method with mouse Gapdh as the endogenous control.

NOD/DQ8 mice [1] = test: Gut barrier function by Ussing chamber technique (jejunum); conditions: gluten treated NOD/DQ8 mice, 1 μg/mouse i.p. at day 1, 10, 20 and 30, vs vehicle (DMSO)
Method: Gut barrier function was assessed by a Ussing chamber technique. Briefly, sections of jejunum from each mouse were mounted in a Ussing Chamber with an opening of 0.6 cm^2. Net active transport across the epithelium was measured via a short circuit current response (Isc, μA) injected through the tissue under voltage-clamp conditions. Baseline Isc (μA/cm^2) was recorded at equilibrium 20 min after mounting jejunum sections. Mucosal-to-serosal transport of macromolecules was assessed by adding ^51Cr-EDTA in the luminal side of the chamber. ^51Cr-EDTA fluxes were calculated by measuring the proportion of radioactive ^51Cr-EDTA detected in the serosal side of the chamber after 2 hours compared to the radioactive ^51Cr-EDTA placed in the luminal side at the beginning of experiment.

NOD/DQ8 mice [2] = test: Histology and immunohistochemistry of proximal small intestine (V/C ratios, CD3+ IEL counts); conditions: gluten treated NOD/DQ8 mice; 1 μg/mouse i.p. at day 1, 10, 20 and 30; vs vehicle (DMSO)
Method: For histology and immunohistochemistry studies, cross-sections of the proximal small intestine were fixed in 10% formalin and embedded in paraffin. Enteropathy was determined by measuring villus-to-crypt (V/C) ratios in a blinded fashion. The presence of IELs (intraepithelial lymphocytes) in the sections was determined by immunostaining for CD3+ cells. Briefly, sections were stained with polyclonal rabbit anti-mouse CD3 (Dako) and in each section, and intraepithelial lymphocytosis was determined by counting CD3+ IELs per 20 enterocytes in five randomly chosen villus tips.

NOD/DQ8 mice [3] = test: Fecal lipocalin-2 quantification; conditions: gluten treated NOD/DQ8 mice; 1 μg/mouse i.p. at day 1, 10, 20 and 30; vs vehicle (DMSO)

intestinal expression of AhR target genes (Cyp1a1, Il22, Il17) (AhR pathway genes): even higher expression
Structure (SMILES): O=Cc1c2c(cc3c1=Nc1ccccc1-3)=Nc1ccccc1-2 [Ficz, 6-formylindolo(3,2-b) carbazole]
intestinal IL-15 expression (AhR pathway genes): did not affect | paracellular permeability (NOD/DQ8 mice [1]; 51Cr-EDTA): improved | ion transport (NOD/DQ8 mice [1]): improved | IEL counts (NOD/DQ8 mice [2]): improved | V/C ratios (NOD/DQ8 mice [2]): improved | other markers of overall gut inflammation (fecal lipocalin-2, FIG. 17) (NOD/DQ8 mice [3]): improved
